Broadly, the pIC50 is −log10 of the IC50, conventionally taken in molar units.

pIC50: −log10 of the molar value. Activity calls are given as the source filed them. The calls are words filed in the database; no cut-off is given here.

The target of experiment [1] is T1, Protein deacetylase HDAC6 (Homo sapiens) (UniProt Q9UBN7).
T1 sequence (whole entry): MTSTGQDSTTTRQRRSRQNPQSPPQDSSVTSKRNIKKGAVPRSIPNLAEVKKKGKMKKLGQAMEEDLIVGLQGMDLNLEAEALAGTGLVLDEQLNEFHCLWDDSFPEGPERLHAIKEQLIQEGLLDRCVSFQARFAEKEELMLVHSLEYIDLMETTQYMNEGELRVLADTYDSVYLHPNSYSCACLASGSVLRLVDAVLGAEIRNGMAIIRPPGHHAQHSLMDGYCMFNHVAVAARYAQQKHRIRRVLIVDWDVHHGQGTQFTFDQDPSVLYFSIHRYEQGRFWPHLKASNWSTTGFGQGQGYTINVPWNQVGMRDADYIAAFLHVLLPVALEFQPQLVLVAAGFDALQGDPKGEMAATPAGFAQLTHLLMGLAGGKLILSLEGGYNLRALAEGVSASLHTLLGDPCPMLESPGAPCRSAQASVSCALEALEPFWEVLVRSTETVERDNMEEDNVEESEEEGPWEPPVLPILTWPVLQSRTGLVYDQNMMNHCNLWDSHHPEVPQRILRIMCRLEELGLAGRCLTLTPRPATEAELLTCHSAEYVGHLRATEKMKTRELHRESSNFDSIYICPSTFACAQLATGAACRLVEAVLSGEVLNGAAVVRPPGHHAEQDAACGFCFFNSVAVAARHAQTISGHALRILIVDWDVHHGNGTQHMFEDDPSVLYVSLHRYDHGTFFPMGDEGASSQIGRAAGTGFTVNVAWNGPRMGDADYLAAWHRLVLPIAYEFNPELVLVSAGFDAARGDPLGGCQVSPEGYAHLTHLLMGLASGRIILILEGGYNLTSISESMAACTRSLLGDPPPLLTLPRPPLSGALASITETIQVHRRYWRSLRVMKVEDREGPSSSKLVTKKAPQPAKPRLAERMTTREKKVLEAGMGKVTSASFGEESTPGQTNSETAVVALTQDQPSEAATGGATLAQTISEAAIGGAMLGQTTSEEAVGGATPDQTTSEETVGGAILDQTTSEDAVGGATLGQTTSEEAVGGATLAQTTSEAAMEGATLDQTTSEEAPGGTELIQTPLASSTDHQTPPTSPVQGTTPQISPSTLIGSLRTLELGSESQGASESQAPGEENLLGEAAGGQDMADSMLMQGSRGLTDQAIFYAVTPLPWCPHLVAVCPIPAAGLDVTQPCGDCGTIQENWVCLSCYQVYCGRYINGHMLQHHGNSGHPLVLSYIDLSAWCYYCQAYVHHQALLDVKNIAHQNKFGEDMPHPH
The experiment can be described thus: Inhibition of HDAC6 in human RPMI-8226 cells assessed as increase in acetylated alpha-tubulin level at 0.25 to 1 uM incubated for 24 hrs by western blot analysis. The conditions noted are these: dose 0.25-1 µM. It counts as cell-based. A general note: In western blotting, separated proteins are transferred to a membrane and probed.

The target in a further experiment is Histone deacetylase 3 (Homo sapiens, UniProt O15379). The experiment can be described thus: Inhibition of HDAC3 (unknown origin) incubated for 30 mins by fluorometric analysis.
Another experiment concerns Fibroblast. The experiment can be described thus: Antiproliferative activity against human primary fibroblasts assessed as inhibition of cell growth incubated for 24 to 48 hrs by CCK8 assay. The class given is functional, cell-based. Background: Tetrazolium assays rely on reduction of a dye to a coloured formazan, in cell work by metabolically active cells.
The target of experiment [2] is T2, Protein deacetylase HDAC6 (Mus musculus) (UniProt Q9Z2V5).
T2 sequence (whole entry): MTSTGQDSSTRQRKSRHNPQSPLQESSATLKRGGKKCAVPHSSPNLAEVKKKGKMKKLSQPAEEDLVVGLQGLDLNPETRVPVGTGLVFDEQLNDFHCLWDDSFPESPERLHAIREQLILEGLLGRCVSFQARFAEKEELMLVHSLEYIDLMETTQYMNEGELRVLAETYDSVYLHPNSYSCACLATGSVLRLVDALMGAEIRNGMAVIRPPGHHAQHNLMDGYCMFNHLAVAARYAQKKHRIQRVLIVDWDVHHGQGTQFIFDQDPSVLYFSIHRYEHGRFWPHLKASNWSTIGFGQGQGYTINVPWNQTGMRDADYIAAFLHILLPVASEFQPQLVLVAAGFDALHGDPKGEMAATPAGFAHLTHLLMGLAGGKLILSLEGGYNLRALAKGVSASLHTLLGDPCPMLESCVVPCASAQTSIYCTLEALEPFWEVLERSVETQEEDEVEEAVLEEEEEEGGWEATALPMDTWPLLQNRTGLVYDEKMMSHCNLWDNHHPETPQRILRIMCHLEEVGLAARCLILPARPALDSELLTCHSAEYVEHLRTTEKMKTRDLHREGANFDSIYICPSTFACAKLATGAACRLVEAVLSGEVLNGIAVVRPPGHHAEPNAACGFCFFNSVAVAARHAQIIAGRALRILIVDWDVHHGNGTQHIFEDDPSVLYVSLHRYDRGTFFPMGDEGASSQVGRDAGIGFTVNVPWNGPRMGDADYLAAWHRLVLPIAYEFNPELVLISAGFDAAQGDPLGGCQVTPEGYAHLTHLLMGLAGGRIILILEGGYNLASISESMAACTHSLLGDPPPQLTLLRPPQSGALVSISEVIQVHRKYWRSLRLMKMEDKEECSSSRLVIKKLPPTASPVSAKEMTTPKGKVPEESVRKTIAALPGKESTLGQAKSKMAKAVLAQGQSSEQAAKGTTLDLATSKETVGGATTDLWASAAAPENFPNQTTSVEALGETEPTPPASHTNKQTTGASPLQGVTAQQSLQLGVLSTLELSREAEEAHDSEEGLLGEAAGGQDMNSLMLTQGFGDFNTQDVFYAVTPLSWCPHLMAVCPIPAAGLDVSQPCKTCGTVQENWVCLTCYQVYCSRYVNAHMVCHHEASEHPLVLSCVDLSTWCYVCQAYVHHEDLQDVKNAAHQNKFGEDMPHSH
Nature of the experiment: In vivo inhibition of HDAC6 in bleomycin-induced idiopathic pulmonary fibrosis C57BL/6J mouse model assessed as increase in acetylated histone H4 level in lung at 25 mg/kg, ig administered via gavage and measured on day 14 by western blot analysis. The class given is functional, organism-based. The conditions noted are these: time 14.0 day.

The target in the next experiment is T3, Histone deacetylase 8 (Homo sapiens, UniProt Q9BY41).
T3 sequence (Q9BY41 whole entry): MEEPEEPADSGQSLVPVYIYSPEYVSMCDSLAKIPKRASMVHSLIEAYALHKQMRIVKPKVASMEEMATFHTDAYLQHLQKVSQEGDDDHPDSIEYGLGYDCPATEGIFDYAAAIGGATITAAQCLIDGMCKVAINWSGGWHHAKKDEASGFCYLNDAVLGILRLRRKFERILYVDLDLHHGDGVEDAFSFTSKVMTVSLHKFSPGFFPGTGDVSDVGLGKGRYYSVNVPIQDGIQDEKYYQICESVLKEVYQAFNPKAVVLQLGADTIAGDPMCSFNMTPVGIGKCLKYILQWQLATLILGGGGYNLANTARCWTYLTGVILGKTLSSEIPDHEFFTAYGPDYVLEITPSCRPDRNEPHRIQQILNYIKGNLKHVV
Nature of the experiment: Inhibition of HDAC8 (unknown origin) incubated for 30 mins by fluorometric analysis.

Sequence of Histone deacetylase 3 (O15379 whole entry): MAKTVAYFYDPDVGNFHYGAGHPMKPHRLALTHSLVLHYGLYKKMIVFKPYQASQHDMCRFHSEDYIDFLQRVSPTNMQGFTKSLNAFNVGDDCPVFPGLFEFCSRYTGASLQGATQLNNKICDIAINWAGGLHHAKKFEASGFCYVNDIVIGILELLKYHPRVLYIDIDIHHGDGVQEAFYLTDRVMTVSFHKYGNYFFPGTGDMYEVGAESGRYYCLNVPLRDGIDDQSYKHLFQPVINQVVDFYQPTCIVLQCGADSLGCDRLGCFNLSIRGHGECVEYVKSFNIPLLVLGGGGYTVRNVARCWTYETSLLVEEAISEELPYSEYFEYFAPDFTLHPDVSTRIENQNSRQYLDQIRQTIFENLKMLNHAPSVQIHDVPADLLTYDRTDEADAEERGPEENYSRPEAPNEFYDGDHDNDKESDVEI

Consider `O=C(NO)c1ccc(CN2C(=O)C3=C(CCN(Cc4cccc(Cl)c4)C3)N3CCN=C23)cc1`, for which the inhibition entry in experiment [1] is “Active”. In addition, the pIC50 on Histone deacetylase 3 was 5.94; with Fibroblast, 4.53; against Histone deacetylase 8, 6.48. Besides, in experiment [2], the inhibition result was “inactive”.

The values are drawn from ChEMBL document CHEMBL6092154, “Design, synthesis, and evaluation of a novel TRAIL-activated HDAC6 inhibitor for the treatment of pulmonary fibrosis” (Bioorg Med Chem, 2024).
